Assay results taken from ChEMBL document CHEMBL1201862, “PubChem BioAssay data set” (2004).
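Briefly, cells in 96-well plates were exposed to five compound concentrations for 48 h, and endpoints were estimated by linear interpolation. GI50 = concentration required for 50% inhibition of growth.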 Calls of active or inactive are those of the source. Rule as the data show it: active = GI50 up to about 1.1 µM and inactive = higher.

Columns and labels:
Assay in all cases: DTP human tumour cell line panel, 48 h
[1] = tested on: SNB-75
[2] = tested on: KM12
[3] = tested on: MDA-MB-435
[4] = tested on: SW-620
[5] = tested on: RXF 393
[6] = tested on: MDA-MB-231
[7] = tested on: PC-3
[8] = tested on: DU-145
[9] = tested on: NCI/ADR-RES
[10] = tested on: MOLT-4
[11] = tested on: UACC-62
[12] = tested on: K562
[13] = tested on: SNB-19
[14] = tested on: TK-10
[15] = tested on: SN12C
[16] = tested on: CCRF-CEM
[17] = tested on: CAKI-1
[18] = tested on: HOP-62
[19] = tested on: SF-268
[20] = tested on: SR

SMILES | GI50 [1] | GI50 [2] | GI50 [3] | GI50 [4] | GI50 [5] | GI50 [6] | GI50 [7] | GI50 [8] | GI50 [9] | GI50 [10] | GI50 [11] | GI50 [12] | GI50 [13] | GI50 [14] | GI50 [15] | GI50 [16] | GI50 [17] | GI50 [18] | GI50 [19] | GI50 [20]
Cc1cc2c([N+](=O)[O-])cc3c(c2o1)C(=O)C=CC3=O | 25.6 µM (inactive) | 16.6 µM (inactive) | 3.2 µM (inactive) | 2.43 µM (inactive) | 1.89 µM (inactive) | 18.7 µM (inactive) | 16.4 µM (inactive) | 7.93 µM (inactive) | 22.9 µM (inactive) | 0.415 µM (active) | 15.2 µM (inactive) | 1.79 µM (inactive) | 15.5 µM (inactive) | 2.38 µM (inactive) | 6.19 µM (inactive) | 1.43 µM (inactive) | 1.06 µM (active) | 19 µM (inactive) | 12.4 µM (inactive) | 5.41 µM (inactive)
C(=N\Nc1ccc(-c2nc3ccccc3[nH]2)cc1)/c1c(-c2ccc(Cc3ccccc3)cc2)[nH]c2ccccc12 | 4.47 µM (inactive) | 4.37 µM (inactive) | 3.23 µM (inactive) | 9.98 µM (inactive) | 2.29 µM (inactive) | 11.5 µM (inactive) | 4.86 µM (inactive) | 16.8 µM (inactive) | 5.31 µM (inactive) | 2.56 µM (inactive) | 7.69 µM (inactive) | 4.46 µM (inactive) | 14.2 µM (inactive) | 21.5 µM (inactive) | 18.6 µM (inactive) | 5.06 µM (inactive) | 14.3 µM (inactive) | 19.6 µM (inactive) | 0.925 µM (active) | 2.15 µM (inactive)
Cc1cnc2[nH]c(-c3cccc(F)c3)cc(=O)c2c1 | 0.0171 µM (active) | 0.0327 µM (active) | < 0.01 µM (active) | 0.0252 µM (active) | 0.0418 µM (active) | 0.0505 µM (active) | 0.0239 µM (active) | 0.0459 µM (active) | 0.0146 µM (active) | 0.0531 µM (active) | 0.0392 µM (active) | 0.0266 µM (active) | 0.0546 µM (active) | 0.161 µM (active) | 0.0687 µM (active) | 0.0353 µM (active) | 0.0317 µM (active) | 0.0662 µM (active) | 0.0705 µM (active) | 0.0229 µM (active)
O=C1/C(=C/c2ccc(O)cc2)CCc2ccccc21 | 26.9 µM (inactive) | 17.2 µM (inactive) | 21.5 µM (inactive) | 19.4 µM (inactive) | 17.1 µM (inactive) | 20.5 µM (inactive) | 16.8 µM (inactive) | 24.8 µM (inactive) | 12.7 µM (inactive) | 2.82 µM (inactive) | 21.5 µM (inactive) | 13.6 µM (inactive) | 22.4 µM (inactive) | 51.5 µM (inactive) | 18.3 µM (inactive) | 1.7 µM (inactive) | 31.3 µM (inactive) | 22.9 µM (inactive) | 16.1 µM (inactive) | 5.45 µM (inactive)
N=c1oc2ccccc2cc1C(=O)Nc1cccc2ccccc12 | > 100 µM (inactive) | > 100 µM (inactive) | > 100 µM (inactive) | > 100 µM (inactive) | > 100 µM (inactive) | > 100 µM (inactive) | > 100 µM (inactive) | > 100 µM (inactive) | > 100 µM (inactive) | > 100 µM (inactive) | > 100 µM (inactive) | > 100 µM (inactive) | > 100 µM (inactive) |  | > 100 µM (inactive) | > 100 µM (inactive) | > 100 µM (inactive) | 50 µM (inactive) | > 100 µM (inactive) | > 100 µM (inactive)
CC1CN(c2cc3c(cc2F)c(=O)c(C(=O)O)cn3-c2ccc(N3CCN(C)CC3)cn2)CC(C)N1 (configuration not stated) | > 100 µM (inactive) | 87.5 µM (inactive) | > 100 µM (inactive) | 98.4 µM (inactive) | > 100 µM (inactive) | > 100 µM (inactive) | > 100 µM (inactive) | > 100 µM (inactive) | > 100 µM (inactive) | 99.5 µM (inactive) | > 100 µM (inactive) | 65.6 µM (inactive) | 70 µM (inactive) | > 100 µM (inactive) | > 100 µM (inactive) | > 100 µM (inactive) | > 100 µM (inactive) | 89.9 µM (inactive) | > 100 µM (inactive) | > 100 µM (inactive)
Clc1ccccc1-c1nn2c(CCCCCCCCc3nnc4sc(-c5ccccc5Cl)nn34)nnc2s1 | > 100 µM (inactive) | 87.3 µM (inactive) | > 100 µM (inactive) | > 100 µM (inactive) | > 100 µM (inactive) | 87.7 µM (inactive) | > 100 µM (inactive) | > 100 µM (inactive) | > 100 µM (inactive) | 16.5 µM (inactive) | > 100 µM (inactive) | > 100 µM (inactive) | > 100 µM (inactive) | > 100 µM (inactive) | > 100 µM (inactive) | 61.7 µM (inactive) | > 100 µM (inactive) | > 100 µM (inactive) | > 100 µM (inactive) | > 100 µM (inactive)
O=C(Nc1cccc(C(F)(F)F)c1)c1cc(Br)cc(Br)c1O [FLUOROSALAN] | 3.35 µM (inactive) | 3.28 µM (inactive) | 3.2 µM (inactive) | 3.9 µM (inactive) | 2.71 µM (inactive) | 4.34 µM (inactive) | 2.32 µM (inactive) | 2.9 µM (inactive) | 2.36 µM (inactive) | 3.15 µM (inactive) | 3.56 µM (inactive) | 2.08 µM (inactive) | 2.77 µM (inactive) | 2.96 µM (inactive) | 3.59 µM (inactive) | 3.22 µM (inactive) | 2.3 µM (inactive) | 5.22 µM (inactive) | 4.25 µM (inactive) | > 10 µM (inactive)
CC(C)(CO)CNc1cc(Cl)nc(N)n1 | > 100 µM (inactive) | > 100 µM (inactive) | > 100 µM (inactive) | > 100 µM (inactive) | > 100 µM (inactive) | > 100 µM (inactive) | > 100 µM (inactive) | > 100 µM (inactive) | > 100 µM (inactive) | > 100 µM (inactive) | > 100 µM (inactive) | > 100 µM (inactive) |  | > 100 µM (inactive) | > 100 µM (inactive) | > 100 µM (inactive) | > 100 µM (inactive) | > 100 µM (inactive) | > 100 µM (inactive) | > 100 µM (inactive)
CC(C)(C)NC(=O)/C(=C\Sc1ccccc1)c1ccccc1 | > 100 µM (inactive) | > 100 µM (inactive) | > 82.8 µM (inactive) | > 100 µM (inactive) | > 100 µM (inactive) | > 95.5 µM (inactive) | > 76.2 µM (inactive) | > 100 µM (inactive) | > 29 µM (inactive) | 23.2 µM (inactive) | > 100 µM (inactive) | 32.7 µM (inactive) | > 100 µM (inactive) | > 100 µM (inactive) | > 100 µM (inactive) | 40.6 µM (inactive) | > 100 µM (inactive) | > 100 µM (inactive) |  | 46.6 µM (inactive)
CCOC(=O)COc1ccc2c(C)cc(=O)oc2c1 | > 100 µM (inactive) | > 100 µM (inactive) | > 100 µM (inactive) | > 100 µM (inactive) | > 100 µM (inactive) | > 100 µM (inactive) | > 100 µM (inactive) | > 100 µM (inactive) | > 100 µM (inactive) | > 100 µM (inactive) | > 100 µM (inactive) | > 100 µM (inactive) | > 100 µM (inactive) |  | > 100 µM (inactive) | > 100 µM (inactive) | > 100 µM (inactive) | > 100 µM (inactive) | > 100 µM (inactive) | > 100 µM (inactive)
CCOC(=O)c1c(CN2CCCC2)n(-c2ccccc2)c2cc(Br)c(OC)cc12 | 5.97 µM (inactive) |  | 26.9 µM (inactive) | 18 µM (inactive) | 0.574 µM (active) | 17.2 µM (inactive) | 20.8 µM (inactive) | 17.7 µM (inactive) | 15.2 µM (inactive) | 4.41 µM (inactive) | 10.9 µM (inactive) | 16.2 µM (inactive) | 33.7 µM (inactive) | 11.8 µM (inactive) | 26.1 µM (inactive) | 8.87 µM (inactive) | 41.6 µM (inactive) | 8.75 µM (inactive) | 46.6 µM (inactive) | 6.14 µM (inactive)
CN(C)/N=C1\C=C2CC[C@H](O[Si](C)(C)C(C)(C)C)[C@@]2(C)CC1 | 16.3 µM (inactive) | 16.4 µM (inactive) | 16.4 µM (inactive) | 17.5 µM (inactive) | 14.2 µM (inactive) | 16.6 µM (inactive) | 14.1 µM (inactive) | 15.8 µM (inactive) | 18.2 µM (inactive) | 12.9 µM (inactive) | 15.1 µM (inactive) | 15.5 µM (inactive) | 17.7 µM (inactive) | 19.7 µM (inactive) |  | 11.8 µM (inactive) | 14.3 µM (inactive) | 17.9 µM (inactive) | 19.7 µM (inactive) | 18.6 µM (inactive)
CC1(C)OC(=O)CC12CCN(Cc1ccccc1)CC2 | > 100 µM (inactive) |  | > 100 µM (inactive) |  | > 100 µM (inactive) | > 100 µM (inactive) | > 100 µM (inactive) | > 100 µM (inactive) | > 100 µM (inactive) | > 100 µM (inactive) | > 100 µM (inactive) | > 100 µM (inactive) | > 100 µM (inactive) | > 100 µM (inactive) | > 100 µM (inactive) | > 100 µM (inactive) | > 100 µM (inactive) | > 100 µM (inactive) | > 100 µM (inactive) | > 100 µM (inactive)
